Reference: US4675405A, “Quinoline compounds as antiallergic and antithrombotic agents” (American Home Products Corporation, priority 1986, dated 1987)
Values belong to the compound of their own block, whether it stands above or below them.

Columns and labels:
[1] = tested on: LTD4 induced bronchospasm; assay: in vivo inhibition of LTD4 induced bronchospasm in guinea pigs; parameters: species or system guinea pig; details: for % Inhibition (Statistical Average), Overflow Volume at 1 min. / % Inhibition (Statistical Average), Overflow Volume at 3 min. / % Inhibition (Statistical Average), Overflow Volume at 5 min.: 10 minutes before LTD4
Protocol: The assay of this Example measures the in vivo ability of the compounds of the invention to inhibit the bronchospasm induced in guinea pigs by the exogenously administered leukotrienes C4 and/or D4. This assay is essentially a measure of the SRS-A antagonist properties of the compounds tested.
Male Hartley strain guinea pigs (350-600 g) are anesthetized with pentobarbital sodium (50 mg/kg, i.p.). The jugular vein is cannulated for injection of drugs and the carotid artery for monitoring blood pressure. The trachea is cannulated for artificial ventilation by a miniature Starling pump and for indirect measurement of respiratory volume changes as described infra. Additional pentobarbital sodium (15 mg/kg, i.v.) is administered to arrest spontaneous respiration. Submaximal bronchoconstrictor responses are established in control animals by varying the dose-levels of leukotriene. Intravenous dose-levels for LTC4 range from 1 to 2 μg/kg and for LTD4 the range is from 0.3 to 1 μg/kg. The aerosol bronchoprovocation dose for LTC4 is generated from 1.6 μM solution and for LTD4 from a 2.0 μM solution.
Test drugs are administered either intravenously, intragastrically, by aerosol or orally at 1 or 10 minutes before induction of bronchospasm by administration of either LTC4 or LTD4 at the predetermined dose-levels. Aerosols of soluble drugs or leukotrienes are produced in-line for 10 seconds only by actuation of an ultrasonic nebulizer (Monaghan). Aerosolized drug dosage is expressed in terms of solution concentration and by a fixed aerosol exposure time (approximately 10 seconds). Control animals receive saline in place of drug.
(§1) Respiratory volume changes are determined by a calibrated piston whose travel is recorded, via a linear transducer, on a Beckman Dynograph recorder. Maximal bronchoconstrictor volume is determined by clamping off the trachea at the end of the experiment. Overflow volumes at 1, 3 and 5 minutes are obtained from the recorded charts.
The overflow volume at 1, 3 and 5 minutes is expressed as a percentage of maximal bronchoconstriction. Combined group values are used from each of these time intervals to determine the inhibitory effect of drugs. [formula] Students t-test for unpaired data is used to determine statistical significance. Dose reponse curves are generated and ED50 doses are interpolated from the regression lines.
Results for compounds of the invention in this assay, using LTD4 for induction of bronchospasm, are given below:
Two other compounds of this invention are tested in this assay and the results are expressed based on the following calculations which employ the values obtained for the overflow volumes at 1, 3 and 5 minutes:
Area under the volume overflow curve (AUC) is estimated, using the overflow values at 1, 3 and 5 minutes, and expressed as a percentage of the maximal overflow AUC (equation 1): [formula] Drug effects are reported as percent inhibition of % max AUC values obtained from appropriate control animals (equation 2): [formula]
Student's t-test for unpaired data is used to determine statistical significance (p<0.05). IC50 values can also be determined by inverse prediction from linear regression lines through points between 10 and 90% inhibition.

[2] = tested on: ovalbumin induced bronchospasm; assay: in vivo inhibition of ovalbumin induced bronchospasm mediated by endogenous mediators in sensitized guinea pigs; parameters: species or system guinea pig; details: 10 minutes before i.v. ovalbumin challenge
Protocol: The assay of this Example measures the in vivo ability of the compounds of the invention to inhibit the bronchospasm induced in guinea pigs by endogenous mediators of the bronchoconstriction.
Male Hartley strain guinea pigs weighing 250-350 g are sensitized to chicken ovalbumin (OA) (10 mg i.p.) on days 1 and 3 and used starting on day 26. The animals are anesthetized with pentobarbital sodium (50 mg/kg, i.p.), bilateral vagotomy is performed, and the jugular vein is cannulated for injection of drugs and the carotid artery for monitoring blood pressure. The trachea is cannulated for artificial ventilation by miniature Starling pump and for indirect measurement of respiratory volume changes as described, infra. Succinylcholine (2 mg/kg, i.v.) is administered to arrest spontaneous respiration. […]
as §1, with “volumes at minutes 1, 3” for “volumes at 1, 3”, “and 5 are obtained” for “and 5 minutes are obtained”
Area under the volume overflow curve (AUC) is estimated, using the overflow values at 1, 3 and 5 minutes, and expressed as a percentage of the maximal overflow AUC (equation 1): [formula] […]

[3] = tested on: TxB2 synthesis (cyclooxygenase); assay: inhibition of synthesis of the cyclooxygenase oxidation product TxB2 by rat PMN; format: cell-based
Protocol: (§2) Peritoneal PMN are obtained from female Wistar rats (150-250 g) that received an i.p. injection of 6% glycogen (10 ml). After 24 hours, rats are killed by CO2 asphyxiation and peritoneal cells are harvested by peritoneal lavage using Ca^++ and Mg^++ free Hanks' balanced salt solution (HBSS). The peritoneal exudate is centrifuged at 400 g for 10 minutes. After centrifugation, the lavaged fluid is removed and the cell pellet is resuspended in HBSS containing Ca^++ and Mg^++ and 10 mM L-cysteine at a concentration of 2×10^7 cells/ml. To 1 ml portions of cell suspension, test drugs or vehicle are added and incubated at 37° C. for 10 minutes. Following this preincubation, the calcium ionophore (10 μM), A23187, is added together with 0.5 μCi [^14 C] arachidonic acid and further incubated for 10 minutes. The reaction is stopped by the addition of ice cold water (3 ml) and acidifying to pH 3.5. Lipoxygenase products are then extracted twice into diethyl ether. The pooled ether extracts are evaporated to dryness under nitrogen and the residue is redissolved in a small volume of methanol and spotted on aluminum backed pre-coated thin layer chromatographic plates. The samples are them co-chromatographed with authentic reference 5-HETE, 12-HETE and 5,12-diHETE in the solvent system--hexane:ether:acetic acid (50:50:3). After chromatography, the areas associated with 5-HETE and 5,12-diHETE standards are identified by autoradiography, cut out and quantitated by liquid scintillation.
The procedure of Example 5 is also employed for the determination of the ability of the compounds of the invention to inhibit the synthesis of the arachidonic acid cyclooxygenase oxidation product TxB2.
In this assay, the procedure of Example 5 is carried out as described. However, in order to determine cyclooxygenase activity, the samples are cochromatographed with authentic reference TxB2 in the solvent system ethyl acetate:formic acid (80:1) and the upper phase of ethyl acetate:isoctane:acetic acid:water (110:50:20:100). After chromatography, the areas associated with TxB2 standard are identified by autoradiography, cut out and quantitated by liquid scintillation techniques.
The results are calculated as in Example 5.

[4] = tested on: LTB4 synthesis (lipoxygenase); assay: inhibition of LTB4 (5,12-diHETE) synthesis by rat glycogen-elicited polymorphonuclear leukocytes; format: cell-based; details: Leukocyte; rat PMN, A23187 + [14C]arachidonic acid; read-out: 50% Inhibitory Concentration (IC50) LTB4
Protocol: (§3) This is especially true with respect to 5,12-diHETE, which is also denoted as LTB4 [see Ford-Hitchinson, J. Roy. Soc. Med., 74, 831 (1981)]. The assay of this Example measures the ability of the compounds of the inventin to inhibit the synthesis of 5HETE and LTB4 by rat glycogen-elicited polymorphonuclear leukocytes.
as §2, with “The reaction is stopped by the addition of ice cold water (3 ml) and acidifying to pH 3.5. Lipoxygenase products are then extracted twice into diethyl ether. The pooled ether extracts are evaporated to dryness under nitrogen and the residue is redissolved in a small volume of methanol and spotted on aluminum backed pre-coated thin layer chromatographic plates. The samples are them co-chromatographed with authentic reference 5-HETE, 12-HETE and 5,12-diHETE in the solvent system--hexane:ether:acetic acid (50:50:3).” left out
(§4) Results are expressed as % inhibition of [^14 C]5-HETE and [^14 C]LTB4 (5,12-HETE)synthesis. […]

[5] = tested on: 5-HETE synthesis (lipoxygenase); assay: inhibition of 5-HETE synthesis by rat glycogen-elicited polymorphonuclear leukocytes; format: cell-based; details: for IC50: Leukocyte, rat PMN, A23187 + [14C]arachidonic acid, read-out: 50% Inhibitory Concentration (IC50) 5-HETE
Protocol: as §3, §2
Results are expressed as % inhibition of [^14 C]5-HETE and [^14 C]LTB4 (5,12-HETE)synthesis. [formula]
Testing compounds of the invention in this assay and using the antioxident 3-amino-1-[m-(trifluoromethyl)phenyl]-2-pyrazoline (BW755C) as a standard, the following results are obtained.

[6] = tested on: 5-HETE and LTB4 synthesis (lipoxygenase); assay: inhibition of synthesis of lipoxygenase products 5-HETE and LTB4 by rat PMN (product not separately stated); format: cell-based
Protocol: as §3
as §2, with “The reaction is stopped by the addition of ice cold water (3 ml) and acidifying to pH 3.5. Lipoxygenase products are then extracted twice into diethyl ether. The pooled ether extracts are evaporated to dryness under nitrogen and the residue is redissolved in a small volume of methanol and spotted on aluminum backed pre-coated thin layer chromatographic plates. The samples are them co-chromatographed with authentic reference 5-HETE, 12-HETE and 5,12-diHETE in the solvent system--hexane:ether:acetic acid (50:50:3).” left out
as §4

Structure (SMILES): O=S(=O)(Nc1cccc(OCc2ccc3ccccc3n2)c1)C(F)(F)F [Example 3, N-[3-[(2-Quinolinyl)methoxy]phenyl]trifluoromethane sulfonamide]
- % Inhibition ([1]; 25 mg/kg administered intragastrically): 98%
- ED50 ([1]; Cavia porcellus, po, administered intragastrically, LTD4 induced bronchospasm, read-out: IC50 (the source's name)): 0.1 mg/kg
- % Inhibition ([2]; 25 mg/kg intragastric): 97%
- ED50 ([2]; Cavia porcellus, 10 min, intragastric, read-out: IC50 (the source's name)): 0.6 mg/kg

- IC50 [4]: 2.1 µM
- IC50 [5]: 1.6 µM
Structure (SMILES): CCCCS(=O)(=O)Nc1cccc(OCc2ccc3ccccc3n2)c1 [Example 2B, N-[3-[(2-Quinolinyl)methoxy]phenyl]-1-butane sulfonamide]
- % Inhibition at 100 μm (TxB2 synthesis) [3]: 73%
- % Inhibition (Statistical Average), Overflow Volume at 1 min. ([1]; 50 mg/kg intraduodenal): 08%
- % Inhibition (Statistical Average), Overflow Volume at 3 min. ([1]; 50 mg/kg intraduodenal): 41%
- % Inhibition (Statistical Average), Overflow Volume at 5 min. ([1]; 50 mg/kg intraduodenal): 41%

Structure (SMILES): CCS(=O)(=O)Nc1cccc(OCc2ccc3ccccc3n2)c1 [Example 2A, N-[3-[(2-Quinolinyl)methoxy]phenyl]ethane sulfonamide]
- % Inhibition at 100 μm (TxB2 synthesis) [3]: 56%
- % Inhibition (Statistical Average), Overflow Volume at 1 min. ([1]; 50 mg/kg intraduodenal): 88%
- % Inhibition (Statistical Average), Overflow Volume at 3 min. ([1]; 50 mg/kg intraduodenal): 86%
- % Inhibition (Statistical Average), Overflow Volume at 5 min. ([1]; 50 mg/kg intraduodenal): 81%
- % Inhibition at 100 μm (first value, 5-HETE by column order) ([5]; 100 μm): 93%

Structure (SMILES): CCCS(=O)(=O)Nc1cccc(OCc2cc3ccccc3s2)c1 [Example 2E, N-[3-[(2-Benzo[b]thienyl]methoxy]phenyl]-1-propane sulfonamide]
- 50% Inhibition at 50 μm (TxB2 synthesis) [3]: + (inhibition of >50%)
- >50% Inhibitory at 50 μm [6]: + (inhibition of >50%)

Structure (SMILES): CCS(=O)(=O)Nc1cccc(OCc2cc3ccccc3s2)c1 [Example 2D, N-[3-[(2-Benzo[b]thienyl)methoxy]phenyl]ethane sulfonamide]
- 50% Inhibition at 50 μm (TxB2 synthesis) [3]: + (inhibition of >50%)
- >50% Inhibitory at 50 μm [6]: + (inhibition of >50%)
- % Inhibition of Max AUC ([1]; 50 mg/kg intraduodenal, 10 minutes before induction of bronchospasm): 13%

Structure (SMILES): CCS(=O)(=O)Nc1cccc(OCc2ccc3ccccc3c2)c1 [Example 2C, N-[3-[(2-Naphthalenyl)methoxy]phenyl]ethane sulfonamide]
- % Inhibition (Statistical Average), Overflow Volume at 1 min. ([1]; 50 mg/kg intraduodenal): 61%
- % Inhibition (Statistical Average), Overflow Volume at 3 min. ([1]; 50 mg/kg intraduodenal): 41%
- % Inhibition (Statistical Average), Overflow Volume at 5 min. ([1]; 50 mg/kg intraduodenal): 53%

- IC50 [4]: 30 µM
- IC50 [5]: 43 µM
Structure (SMILES): NC1=NN(c2cccc(C(F)(F)F)c2)CC1 [BW755C, 3-amino-1-[m-(trifluoromethyl)phenyl]-2-pyrazoline, reference compound]
